In patent publication US20080026996A1, “Selective Vpac2 Receptor Reptide Agonists” (ELI LILLY AND COMPANY, priority 2004, published 2008):
Where “and” joins values, the source holds several entries; their conditions need not be identical. Equal values may be shown once. Read-outs that look alike come from different tables or passages of the source. Where a SMILES comes first, the peptide text is derived from it. Where no end group is shown, it is not given here. [ ]: non-standard residue; d: D form. The star is where a group is joined. Hexanoyl = CCCCCC(=O)*; Aib = CC(C)(N)C(=O)O

How the values were obtained:
human VPAC1 = molecular target: T1, human VPAC1 (Homo sapiens, UniProt P32241); test: Filter binding assay, membranes of cells transiently transfected with human VPAC1, 125I-labeled VIP tracer (Table 2); parameters: expressed in transfected cells
T1 sequence (P32241 31-457): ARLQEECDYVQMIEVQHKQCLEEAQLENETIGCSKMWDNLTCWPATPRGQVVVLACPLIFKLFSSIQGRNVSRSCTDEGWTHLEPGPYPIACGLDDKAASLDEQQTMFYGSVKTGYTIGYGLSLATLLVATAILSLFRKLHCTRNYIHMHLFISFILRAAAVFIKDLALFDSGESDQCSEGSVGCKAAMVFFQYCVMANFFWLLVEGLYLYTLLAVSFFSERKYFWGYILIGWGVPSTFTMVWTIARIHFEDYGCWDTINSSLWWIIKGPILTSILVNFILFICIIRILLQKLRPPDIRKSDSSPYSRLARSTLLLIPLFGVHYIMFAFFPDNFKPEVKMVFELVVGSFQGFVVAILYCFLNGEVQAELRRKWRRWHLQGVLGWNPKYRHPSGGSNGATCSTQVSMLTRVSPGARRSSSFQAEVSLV
In short: (§1)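 Scintillation counting of filter-retained radioligand gave the read-out. Compounds competed with the labelled tracer (about 40000 cpm) for 2.5 μg membranes during 1 hour of shaking in HEPES pH 7.4 buffer containing 0.5% BSA.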

human VPAC2 [1] = molecular target: T2, human VPAC2 (Homo sapiens, UniProt P41587); test: Alpha screen cAMP in vitro potency, human VPAC2 receptor; type: cell-based
T2 construct: expressed in transfected cells
T2 sequence (P41587 24-438): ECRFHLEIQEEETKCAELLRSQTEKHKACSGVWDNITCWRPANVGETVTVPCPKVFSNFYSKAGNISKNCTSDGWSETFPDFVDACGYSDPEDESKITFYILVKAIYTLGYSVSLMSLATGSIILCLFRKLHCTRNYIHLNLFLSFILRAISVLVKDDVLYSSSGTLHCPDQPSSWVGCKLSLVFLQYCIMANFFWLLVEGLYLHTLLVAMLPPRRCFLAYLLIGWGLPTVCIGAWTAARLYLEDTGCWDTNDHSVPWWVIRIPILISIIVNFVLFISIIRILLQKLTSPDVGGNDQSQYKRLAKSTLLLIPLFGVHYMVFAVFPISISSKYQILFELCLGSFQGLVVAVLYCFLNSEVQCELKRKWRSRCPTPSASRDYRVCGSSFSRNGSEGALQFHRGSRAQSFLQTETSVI
In short: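 This followed a 60 min stimulation of 50,000 enzyme-free-dissociated cells per point with acceptor beads in stimulation buffer.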

Normal Wistar rats = test: Intravenous glucose tolerance test (IVGTT); type: in vivo, rat; details: for % increase AUC: Dose = 0.5 μg/kg / % increase AUC: Dose = 10 μg/kg: IVGTT, insulin
Procedure: Intravenous glucose tolerance test (IVGTT): Normal Wistar rats are fasted overnight and are anesthetized prior to the experiment. A blood sampling catheter is inserted into the rats. The compound is given in the jugular vein. Blood samples are taken from the carotid artery. A blood sample is drawn immediately prior to the injection of glucose along with the compound. After the initial blood sample, glucose mixed with compound is injected intravenously (i.v.). A glucose challenge of 0.5 g/kg body weight is given, injecting a total of 1.5 mL vehicle with glucose and agonist per kg body weight. The peptide concentration vary to produce the desired dose in μg/kg. Blood samples are drawn at 2, 4, 6 and 10 minutes after giving glucose. The control group of animals receives the same vehicle along with glucose, but with no compound added. In some instances, a 30 minute post-glucose blood sample is drawn. Aprotinin is added to the blood sample (250 kIU/ml blood). The serum is then analyzed for glucose and insulin using standard methodologies.
The assay uses a formulated and calibrated peptide stock in PBS. Normally, this stock is a prediluted 100 μM stock. However, a more concentrated stock with approximately 1 mg agonist per mL is used. The specific concentration is always known. Variability in the maximal response is mostly due to variability in the vehicle dose.

human PAC1 = molecular target: T3, human PAC1 (Homo sapiens, UniProt P41586); test: Filter binding assay, membranes of cells transiently transfected with human PAC1, 125I-labeled PACAP-27 tracer (Table 2); parameters: expressed in transfected cells
T3 sequence (P41586 21-468): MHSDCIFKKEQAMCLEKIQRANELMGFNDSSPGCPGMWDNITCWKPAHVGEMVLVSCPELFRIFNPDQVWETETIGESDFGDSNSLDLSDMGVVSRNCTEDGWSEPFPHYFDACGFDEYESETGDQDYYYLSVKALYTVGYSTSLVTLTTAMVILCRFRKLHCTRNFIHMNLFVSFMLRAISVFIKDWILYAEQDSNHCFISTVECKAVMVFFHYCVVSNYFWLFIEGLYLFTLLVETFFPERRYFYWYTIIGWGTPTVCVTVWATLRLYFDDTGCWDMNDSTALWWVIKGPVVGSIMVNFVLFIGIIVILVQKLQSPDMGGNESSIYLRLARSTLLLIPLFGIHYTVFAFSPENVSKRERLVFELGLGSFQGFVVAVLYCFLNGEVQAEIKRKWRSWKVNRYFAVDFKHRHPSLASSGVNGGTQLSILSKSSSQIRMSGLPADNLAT
In short: as §1

human VPAC2 [2] = molecular target: T2, human VPAC2; test: Filter binding assay, membranes of stable VPAC2 cell line, 125I-labeled VIP tracer (Table 2)
In short: as §1

[3] = read-out: Human VPAC1 Receptor Binding
[4] = cAMP generation, single result from two analyses performed in a single run, read-out: Human VPAC2 Receptor: Alpha Screen EC50
[5] = read-out: Human PAC1 Receptor Binding
[6] = read-out: Human VPAC2 Receptor Binding

With `CCCCCC(=O)N[C@@H](Cc1c[nH]cn1)C(=O)N[C@@H](CO)C(=O)N[C@@H](CC(=O)O)C(=O)N[C@@H](C)C(=O)N[C@H](C(=O)N[C@@H](Cc1ccccc1)C(=O)N[C@H](C(=O)N[C@@H](CC(=O)O)C(=O)N[C@@H](CC(N)=O)C(=O)N[C@@H](Cc1ccc(O)cc1)C(=O)N[C@H](C(=O)N[C@@H](CCCNC(=N)N)C(=O)N[C@@H](CC(C)C)C(=O)N[C@@H](CCCNC(=N)N)C(=O)NC(C)(C)C(=O)N[C@@H](CCC(N)=O)C(=O)N[C@@H](CC(C)C)C(=O)N[C@@H](C)C(=O)N[C@@H](C)C(=O)NC(C)(C)C(=O)N[C@@H](CCCCN)C(=O)N[C@@H](Cc1ccc(O)cc1)C(=O)N[C@@H](CC(C)C)C(=O)N[C@@H](CCC(N)=O)C(=O)N[C@@H](CO)C(=O)N[C@H](C(=O)N[C@@H](CCCCN)C(=O)N[C@@H](CC(N)=O)C(=O)N[C@@H](CCCCN)C(=O)NCC(=O)NCC(=O)N1CCC[C@H]1C(=O)N[C@@H](CO)C(=O)N[C@@H](CO)C(=O)NCC(=O)N[C@@H](C)C(=O)N1CCC[C@H]1C(=O)N1CCC[C@H]1C(=O)N1CCC[C@H]1C(=O)N[C@@H](CO)C(=O)O)[C@@H](C)CC)[C@@H](C)O)[C@@H](C)O)C(C)C` [Agonist P292] (Hexanoyl-HSDAVFTDNYTRLR[Aib]QLAA[Aib]KYLQSIKNKGGPSSGAPPPS-OH; C-terminus assumed) the IC50 (human VPAC1; [3]) was over 3000 nM, the EC50 (human VPAC2 [1]; [4]) was 0.23 nM and the “% increase AUC: Dose = 0.5 μg/kg” value (Normal Wistar rats) was 292%. For the same molecule, the “% increase AUC: Dose = 10 μg/kg” value (Normal Wistar rats) was 370%, the IC50 (human PAC1; [5]) was over 25000 nM and the IC50 (human VPAC2 [2]; [6]) was 0.3 nM.
In the case of “Hexanoyl-HSDAVFTDNYTRLRKQVAAKKYLQSIKNKRYGGPSSGAPPPS [Agonist P31]”, the IC50 (human VPAC1; [3]) is reported as 145 nM, the EC50 (human VPAC2 [1]; [4]) is reported as 0.13 nM and the “% increase AUC: Dose = 0.5 μg/kg” value (Normal Wistar rats) is reported as 250%. For the same molecule, the IC50 (human PAC1; [5]) was 406 nM and the IC50 (human VPAC2 [2]; [6]) was 0.23 nM.
For “H-MHSDAVFTDNYTRLRKQVAAKKYLQSIKNKRYGGPSSGAPPPS [Agonist P104]”, the IC50 (human VPAC1) was 301 nM, the EC50 (human VPAC2 [1]) was 0.27 nM and the “% increase AUC: Dose = 0.5 μg/kg” value (Normal Wistar rats) was 142% and 205%. The “% increase AUC: Dose = 10 μg/kg” value (Normal Wistar rats) was 198% and 370%, the IC50 (human PAC1) was 117 nM and the IC50 (human VPAC2 [2]) was 0.68 nM.
“Hexanoyl-HSDAVFTDNYTRLR[Aib]QVAAK[Aib]YLQSIKNKRYGGPSSGAPPPS [Agonist P264]” was tested, and the IC50 (human VPAC1; [3]) was over 3000 nM, the EC50 (human VPAC2 [1]; [4]) was 0.1 nM and the “% increase AUC: Dose = 0.5 μg/kg” value (Normal Wistar rats) was 10%. For the same molecule, the “% increase AUC: Dose = 10 μg/kg” value (Normal Wistar rats) was 95%, the IC50 (human PAC1; [5]) was over 25000 nM and the IC50 (human VPAC2 [2]; [6]) was 0.88 nM.
For “Hexanoyl-HSDAVFTDNYTRLLAKLALQKYLQSIKNKRYGGPSSGAPPPS [Agonist P119]”, the IC50 (human VPAC1; [3]) was over 3000 nM, the EC50 (human VPAC2 [1]; [4]) was 0.42 nM and the “IVGTT ED50” value (Normal Wistar rats) was 0.3 µg/kg. The “% increase AUC: Dose = 0.5 μg/kg” value (Normal Wistar rats) was 118%, the “% increase AUC: Dose = 10 μg/kg” value (Normal Wistar rats) was 240% and the IC50 (human PAC1; [5]) was over 25000 nM. The IC50 (human VPAC2 [2]; [6]) was 0.48 nM.
In the case of “Hexanoyl-HSDAVFTDNYTRLR[Aib]QVAA[Aib]KYLQSIKNKRYGGPSSGAPPPS [Agonist P261]”, the IC50 (human VPAC1; [3]) is reported as 1000 nM, the EC50 (human VPAC2 [1]; [4]) is reported as 0.09 nM and the “% increase AUC: Dose = 0.5 μg/kg” value (Normal Wistar rats) is reported as 136%. For the same molecule, the “% increase AUC: Dose = 10 μg/kg” value (Normal Wistar rats) was 320%, the IC50 (human PAC1; [5]) was over 25000 nM and the IC50 (human VPAC2 [2]; [6]) was 0.2 nM.
